Data on 52 sequences can be found in the supplement of paper PMC11208160.
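Also: IS621 bridge recombinase in Escherichia coli cells against a fixed T5 target plasmid.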

A short description of this data set: recombinant UMI read abundance after kanamycin selection (control-corrected) (log10(CPM+1)); higher = more efficient recombination; extreme values may be limits of the assay; sequences stand for … in AGTGCAGAGAAAATCGGCCAGTTTTCTCTGCCTGCAGTCCGCATGCCGTGGGACCCCTTGGGTTCTAACCTGTTGCCTAGATTTATGCAGCGGACTGCCTTTCTCCCAAAGTGATAAACCGG…AGGTTGGTTTCACT; site = the 11-nt donor. The method in brief:
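After plating on IPTG (0.07 mM) plus kanamycin, or unselected, in two replicates, recombinant UMIs were PCR-amplified across the donor–target junction and sequenced. The cells were Escherichia coli co-electroporated with a UMI-tagged donor and donor-binding-loop pair library and a target plasmid with a fixed target and T7-inducible IS621 bridge recombinase. Values are log10(CPM+1), with CPM averaged over replicates and scaled by control-derived factors.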
On to “TAGTATACATGGACCGGTTTTCCCGGTAATCCGTATTTGAC (site TAGTATACTGT)”, for which the “recombinant UMI read abundance (log10)” value worked out at 2.58.
Next, “TAGTATACATGGACCGGTTTTCCCGGTAATCCGTATTTGCA (site TAGAATACTTG)”: 1.23; “TAGTATACATGGACCGGTTTTCCCGGTAATCCGTATTTGCA (site TAGCATACTTG)”: 1.11.
Next, “TAGTATACATGGACCGGTTTTCCCGGTAATCCGTATTTGCA (site TAGGATACTTG)”: 0.222.
For “TAGTATACATGGACCGGTTTTCCCGGTAATCCGTATTTGCA (site TAGTATACTTG)”, the “recombinant UMI read abundance (log10)” value stood at 2.25.
Regarding “TAGTATCCATGGACCGGTTTTCCCGGTAATCCGTATTTGCA (site TAGTATCCTTG)”, the “recombinant UMI read abundance (log10)” value stood at 0.736.
With “TAGTGATCATGGACCGGTTTTCCCGGTAATCCGTATTTGCA (site TAGTGATCTTG)” the figure was 3.02; with “TAGTGGGCATGGACCGGTTTTCCCGGTAATCCGTATTTGTC (site TAGTGGGCTGA)”, 2.31; with “TAGTTGCCATGGACCGGTTTTCCCGGTAATCCGTATTTGCC (site TAGTTGCCTGG)”, 0.
With “TAGTTGGCATGGACCGGTTTTCCCGGTAATCCGTATTTGTG (site TAATTGGCTCA)” the figure was 0.0238; with “TAGTTGGCATGGACCGGTTTTCCCGGTAATCCGTATTTGTG (site TACTTGGCTCA)”, 0.0102.
With “TAGTTGGCATGGACCGGTTTTCCCGGTAATCCGTATTTGTG (site TAGTTGGCTCA)” the figure was 0.476.
Regarding “TAGTTGGCATGGACCGGTTTTCCCGGTAATCCGTATTTGTG (site TATTTGGCTCA)”, the “recombinant UMI read abundance (log10)” value worked out at 0.00327.
On to “TAGTTTCCATGGACCGGTTTTCCCGGTAATCCGTATTTGAA (site TAGTTTCCTTT)”, for which the “recombinant UMI read abundance (log10)” value was determined as 0.228.
Turning to “TAGTTTGCATGGACCGGTTTTCCCGGTAATCCGTATTTGCC (site TAGTTTGCTGG)”, the “recombinant UMI read abundance (log10)” value amounted to 0.
Next, “TATACCCCATGGACCGGTTTTCCCGGTAATCCGTATTTGAC (site TATACCCCTGT)”: 1.5; “TATACTACATGGACCGGTTTTCCCGGTAATCCGTATTTGTG (site TATACTACTCA)”: 0.195; “TATATCGCATGGACCGGTTTTCCCGGTAATCCGTATTTGAT (site TATATCGCTAT)”: 0.63.
Take “TATATGGCATGGACCGGTTTTCCCGGTAATCCGTATTTGGT (site TATATGGCTAC)”: the “recombinant UMI read abundance (log10)” value stood at 0.39.
Next, “TATATGGCATGGACCGGTTTTCCCGGTAATCCGTATTTGTT (site TATATGGCTAA)”: 0.36.
Next, “TATCAGGCATGGACCGGTTTTCCCGGTAATCCGTATTTGTG (site TATCAGGCTCA)”: 0.113; “TATCATCCATGGACCGGTTTTCCCGGTAATCCGTATTTGGT (site TATCATCCTAC)”: 0.0117.
For “TATCCCGCATGGACCGGTTTTCCCGGTAATCCGTATTTGTT (site TATCCCGCTAA)”, the “recombinant UMI read abundance (log10)” value stood at 0.479.
With “TATCTTACATGGACCGGTTTTCCCGGTAATCCGTATTTGTA (site TATCTTACTTA)” the figure was 0.0229.
Turning to “TATGAATCATGGACCGGTTTTCCCGGTAATCCGTATTTGCC (site TATGAATCTGG)”, the “recombinant UMI read abundance (log10)” value came to 1.12.
Next, “TATGAATCATGGACCGGTTTTCCCGGTAATCCGTATTTGCG (site TAAGAATCTCG)”: 1.85; “TATGAATCATGGACCGGTTTTCCCGGTAATCCGTATTTGCG (site TACGAATCTCG)”: 2.23; “TATGAATCATGGACCGGTTTTCCCGGTAATCCGTATTTGCG (site TAGGAATCTCG)”: 0.768.
Next, “TATGAATCATGGACCGGTTTTCCCGGTAATCCGTATTTGCG (site TATGAATCTCG)”: 2.18; “TATGACCCATGGACCGGTTTTCCCGGTAATCCGTATTTGAG (site TATGACCCTCT)”: 0.00635; “TATGAGCCATGGACCGGTTTTCCCGGTAATCCGTATTTGGA (site TATGAGCCTTC)”: 0.00722.
With “TATGCGGCATGGACCGGTTTTCCCGGTAATCCGTATTTGCT (site TATGCGGCTAG)” the figure was 0.532; with “TATGCGGCATGGACCGGTTTTCCCGGTAATCCGTATTTGCT (site TCTGCGGCTAG)”, 0.00356; with “TATGCGGCATGGACCGGTTTTCCCGGTAATCCGTATTTGCT (site TGTGCGGCTAG)”, 0.029.
In the case of “TATGCGGCATGGACCGGTTTTCCCGGTAATCCGTATTTGCT (site TTTGCGGCTAG)”, the “recombinant UMI read abundance (log10)” value amounted to 0.00802.
With “TATGTAACATGGACCGGTTTTCCCGGTAATCCGTATTTGAC (site GTACCGTCTAA)” the figure was 0.0137; with “TATGTCCCATGGACCGGTTTTCCCGGTAATCCGTATTTGGA (site TATGTCCCTTC)”, 0.00458.
With “TATTCCCCATGGACCGGTTTTCCCGGTAATCCGTATTTGTA (site TATTCCCCTTA)” the figure was 0.0102; with “TATTCCCCATGGACCGGTTTTCCCGGTAATCCGTATTTGTA (site TCTTCCCCTTA)”, 0.207; with “TATTCCCCATGGACCGGTTTTCCCGGTAATCCGTATTTGTA (site TGTTCCCCTTA)”, 0.254.
With “TATTCCCCATGGACCGGTTTTCCCGGTAATCCGTATTTGTA (site TTTTCCCCTTA)” the figure was 0.0134.
In the case of “TATTCGGCATGGACCGGTTTTCCCGGTAATCCGTATTTGTG (site TATTAGGCTCA)”, the “recombinant UMI read abundance (log10)” value amounted to 0.0202.
Next, “TATTCGGCATGGACCGGTTTTCCCGGTAATCCGTATTTGTG (site TATTCGGCTCA)”: 0.131; “TATTCGGCATGGACCGGTTTTCCCGGTAATCCGTATTTGTG (site TATTGGGCTCA)”: 0.00845; “TATTCGGCATGGACCGGTTTTCCCGGTAATCCGTATTTGTG (site TATTTGGCTCA)”: 0.0132.
Next, “TATTGCACATGGACCGGTTTTCCCGGTAATCCGTATTTGGT (site TATTGCACTAC)”: 0.029; “TATTTGGCATGGACCGGTTTTCCCGGTAATCCGTATTTGCG (site TATTTGGCTCA)”: 0.0189.
With “TATTTGGCATGGACCGGTTTTCCCGGTAATCCGTATTTGCG (site TATTTGGCTCC)” the figure was 0.0115; with “TATTTGGCATGGACCGGTTTTCCCGGTAATCCGTATTTGCG (site TATTTGGCTCG)”, 0.0194.
With “TATTTGGCATGGACCGGTTTTCCCGGTAATCCGTATTTGCG (site TATTTGGCTCT)”, the “recombinant UMI read abundance (log10)” value was found to be 0.0118.
With “TATTTGGCATGGACCGGTTTTCCCGGTAATCCGTATTTGTC (site TATTTGGCTAA)” the figure was 0.0189; with “TATTTGGCATGGACCGGTTTTCCCGGTAATCCGTATTTGTC (site TATTTGGCTCA)”, 0.00726.
